In ChEMBL document CHEMBL1201862, “PubChem BioAssay data set” (2004):
The source made the active and inactive calls.

molecular target: T1, RNA-binding protein pos-1 (Caenorhabditis elegans, UniProt G5EF15); assay: inhibitors of POS-1/mex-3 RNA binding, dose response, biochemical, fluorescence polarization (AID 1964);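 note: purified POS-1 fused to maltose binding protein made in E. coli; potency of compounds blocking POS-1 binding to fluorescent RNA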
T1 sequence (G5EF15 whole entry): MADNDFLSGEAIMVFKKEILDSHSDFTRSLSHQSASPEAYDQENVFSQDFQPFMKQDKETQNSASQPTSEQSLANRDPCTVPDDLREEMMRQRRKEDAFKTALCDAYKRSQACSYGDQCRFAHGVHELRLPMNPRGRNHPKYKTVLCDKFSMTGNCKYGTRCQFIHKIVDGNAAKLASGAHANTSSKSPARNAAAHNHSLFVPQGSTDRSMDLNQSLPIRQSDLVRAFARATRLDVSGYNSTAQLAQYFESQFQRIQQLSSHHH

Row | Structure (SMILES) | EC50
1 | Cc1ccc2c(c1)N/C(=C\C(=O)CC(C)C)C(=O)O2 | > 300 µM (not active)
2 | CCN(CC)c1ccc(N/C=C2\C(=O)NC(=O)N(c3cc(OC)ccc3OC)C2=O)cc1 | > 300 µM (not active)

molecular target: T2, Zinc finger protein mex-5 (Caenorhabditis elegans, UniProt Q9XUB2); assay: MEX-5/TCR-2 RNA interaction inhibitors, dose response, biochemical, C. elegans, fluorescence polarization (AID 1960)
T2 sequence (Q9XUB2 whole entry): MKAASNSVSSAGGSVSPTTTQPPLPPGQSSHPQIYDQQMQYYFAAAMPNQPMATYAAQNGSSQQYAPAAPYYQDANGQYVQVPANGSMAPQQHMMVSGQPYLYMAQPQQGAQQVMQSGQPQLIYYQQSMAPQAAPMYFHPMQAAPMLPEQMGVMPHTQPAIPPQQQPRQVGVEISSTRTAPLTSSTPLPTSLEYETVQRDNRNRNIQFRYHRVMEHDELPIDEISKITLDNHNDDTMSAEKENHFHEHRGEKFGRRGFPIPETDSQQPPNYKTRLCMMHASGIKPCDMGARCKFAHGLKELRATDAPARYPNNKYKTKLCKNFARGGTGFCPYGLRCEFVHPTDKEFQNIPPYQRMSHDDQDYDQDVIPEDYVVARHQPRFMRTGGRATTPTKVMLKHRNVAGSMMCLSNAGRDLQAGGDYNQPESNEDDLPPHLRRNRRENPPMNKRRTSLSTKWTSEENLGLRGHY

Row | Structure (SMILES) | EC50
3 | Cc1ccc2c(c1)N/C(=C\C(=O)CC(C)C)C(=O)O2 | > 300 µM (not active)
4 | CCN(CC)c1ccc(N/C=C2\C(=O)NC(=O)N(c3cc(OC)ccc3OC)C2=O)cc1 | > 300 µM (not active)

molecular target: Large T antigen (Simian virus 40, UniProt P03070); assay: not given; format: functional, Betapolyomavirus macacae;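 note: Confirmatory-stage PubChem screen for compounds that inhibit SV40 T antigen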
Sequence (P03070 whole entry): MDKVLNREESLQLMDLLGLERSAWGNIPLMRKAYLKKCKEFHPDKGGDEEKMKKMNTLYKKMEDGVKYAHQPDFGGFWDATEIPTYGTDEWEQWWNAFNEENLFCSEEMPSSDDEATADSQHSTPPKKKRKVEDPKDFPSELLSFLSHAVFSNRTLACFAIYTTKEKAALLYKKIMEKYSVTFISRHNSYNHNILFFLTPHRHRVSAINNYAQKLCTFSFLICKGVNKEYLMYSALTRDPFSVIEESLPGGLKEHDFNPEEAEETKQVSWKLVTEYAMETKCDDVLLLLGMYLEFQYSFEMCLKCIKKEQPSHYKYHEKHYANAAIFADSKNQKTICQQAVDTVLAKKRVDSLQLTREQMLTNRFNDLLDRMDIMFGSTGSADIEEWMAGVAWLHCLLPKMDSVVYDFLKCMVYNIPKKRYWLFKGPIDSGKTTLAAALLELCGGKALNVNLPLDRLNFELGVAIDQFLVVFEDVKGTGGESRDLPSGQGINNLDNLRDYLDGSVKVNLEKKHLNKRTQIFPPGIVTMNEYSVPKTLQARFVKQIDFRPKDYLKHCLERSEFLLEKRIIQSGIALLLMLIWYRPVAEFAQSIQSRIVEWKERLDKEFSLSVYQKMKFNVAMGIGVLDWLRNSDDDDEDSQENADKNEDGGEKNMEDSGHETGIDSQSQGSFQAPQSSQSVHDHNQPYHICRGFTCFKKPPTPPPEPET

Row | Structure (SMILES) | IC50
5 | Cc1ccc2c(c1)N/C(=C\C(=O)CC(C)C)C(=O)O2 | 7.15 µM (active)
6 | CCN(CC)c1ccc(N/C=C2\C(=O)NC(=O)N(c3cc(OC)ccc3OC)C2=O)cc1 | 19.8 µM (active)
7 | N#Cc1c(-c2ccco2)cc(-c2ccccc2)[nH]c1=O | 68.7 µM (active)
8 | COc1cc(/C=N/NC(=O)CCc2c(C)n[nH]c2C)ccc1O | 12.9 µM (active)

molecular target: T3, Calpain-2 catalytic subunit (Sus scrofa, UniProt P43367); assay: pig calpain II inhibitor potency, dose response, biochemical, fluorogenic peptide substrate (AID 1420); format: functional
T3 sequence (P43367 whole entry): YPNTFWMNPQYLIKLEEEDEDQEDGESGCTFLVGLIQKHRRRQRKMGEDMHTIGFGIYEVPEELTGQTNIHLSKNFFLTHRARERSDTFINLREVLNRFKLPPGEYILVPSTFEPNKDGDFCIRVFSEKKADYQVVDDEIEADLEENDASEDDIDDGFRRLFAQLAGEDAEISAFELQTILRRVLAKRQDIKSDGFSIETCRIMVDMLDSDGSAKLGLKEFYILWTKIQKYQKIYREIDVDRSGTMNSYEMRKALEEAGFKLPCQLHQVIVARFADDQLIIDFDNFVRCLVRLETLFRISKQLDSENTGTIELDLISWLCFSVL

Row | Structure (SMILES) | IC50
9 | CC(C)Cn1c(S)nnc1-c1csc2c1CCCC2 | 13.5 µM (not active)
10 | CSc1cccc(NC(=O)CSc2ccc(Cl)cc2)c1 | 8.93 µM (not active)

molecular target: FAD-linked sulfhydryl oxidase ALR (Homo sapiens, UniProt P55789); assay: inhibitors of human ALR sulfhydryl oxidase, dose response, biochemical, H2O2 detection, luminescence, cherry-pick (AID 493248)
Sequence (P55789 whole entry): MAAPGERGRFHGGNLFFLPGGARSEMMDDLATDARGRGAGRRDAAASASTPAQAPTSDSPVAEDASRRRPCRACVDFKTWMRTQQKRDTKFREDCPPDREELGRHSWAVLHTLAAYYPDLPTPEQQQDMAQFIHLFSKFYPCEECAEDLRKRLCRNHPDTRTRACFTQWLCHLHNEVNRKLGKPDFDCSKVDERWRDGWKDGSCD

Row | Structure (SMILES) | AC50
11 | O=[N+]([O-])c1ccc(CSC2=NCCS2)cc1 | 5.31 µM (active)
12 | O=C(OCc1ccccc1)Oc1cncc(C(=O)O)c1 | 0.072 µM (active)
13 | CC(=O)c1ccc(S(=O)(=O)N2CCNC(=O)C2)cc1 | 3.33 µM (active)
14 | COC(=O)c1ccc(NC(=O)c2cccc(Cl)c2)o1 | 20.9 µM (active)
15 | Cc1ccc(S(=O)(=O)N/N=C/c2ccc(O)c(O)c2)cc1[N+](=O)[O-] | 1.06 µM (active)
16 | CCN(CC)c1ccc(/C=N/NC(=O)CNC(=O)c2ccccn2)cc1 | 0.91 µM (active)
17 | O=C(O)c1cccc(N/N=C/c2cc(Br)cc(Br)c2O)c1 | 1.99 µM (active)

molecular target: T4, Carboxy-terminal domain RNA polymerase II polypeptide A small phosphatase 1 (Homo sapiens, UniProt Q9GZU7); assay: inhibitors of CTDSP1, concentration-response testing, biochemical assay, absorbance-based, actives from ultra-high-throughput screening (AID 540297); format: functional
T4 sequence (Q9GZU7 whole entry): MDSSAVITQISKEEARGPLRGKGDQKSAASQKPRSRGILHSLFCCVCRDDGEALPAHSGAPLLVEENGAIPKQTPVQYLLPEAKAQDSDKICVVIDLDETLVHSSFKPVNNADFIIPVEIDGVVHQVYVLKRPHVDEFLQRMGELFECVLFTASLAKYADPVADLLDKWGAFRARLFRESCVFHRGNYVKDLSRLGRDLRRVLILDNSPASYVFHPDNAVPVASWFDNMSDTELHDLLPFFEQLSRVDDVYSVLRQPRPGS

Row | Structure (SMILES) | IC50
18 | CC1(C(O)(C#CC[N+]2(C)CCCCC2)c2ccccc2)CCCC1 (configuration not stated) | 9.1 µM (active)
19 | CCOC(=O)/C=C1\CC(C(=O)OCC)Oc2c(OC)cccc21 (configuration not stated) | 16.7 µM (active)
20 | C=CCNC(=O)c1ccc(Cn2c(=S)[nH]c3cc4c(cc3c2=O)OCO4)cc1 | 8.27 µM (active)
21 | Cc1ccc(NC(=O)CSc2ccccc2NC(=O)c2ccccc2Cl)cc1Cl | 7.38 µM (active)
22 | COCCN(C(=O)COC(=O)Cc1coc2cc3c(cc12)CCC3)c1c(N)n(Cc2ccccc2)c(=O)[nH]c1=O | 6.23 µM (active)
23 | C#Cc1ccc([C@@H]2C=C(C(=O)O)O[C@H](OCC)[C@H]2CCCO)cc1 | 4.59 µM (active)

molecular target: T5, Protein skinhead-1 (Caenorhabditis elegans, UniProt P34707); assay: not given; format: functional
T5 sequence (P34707 whole entry): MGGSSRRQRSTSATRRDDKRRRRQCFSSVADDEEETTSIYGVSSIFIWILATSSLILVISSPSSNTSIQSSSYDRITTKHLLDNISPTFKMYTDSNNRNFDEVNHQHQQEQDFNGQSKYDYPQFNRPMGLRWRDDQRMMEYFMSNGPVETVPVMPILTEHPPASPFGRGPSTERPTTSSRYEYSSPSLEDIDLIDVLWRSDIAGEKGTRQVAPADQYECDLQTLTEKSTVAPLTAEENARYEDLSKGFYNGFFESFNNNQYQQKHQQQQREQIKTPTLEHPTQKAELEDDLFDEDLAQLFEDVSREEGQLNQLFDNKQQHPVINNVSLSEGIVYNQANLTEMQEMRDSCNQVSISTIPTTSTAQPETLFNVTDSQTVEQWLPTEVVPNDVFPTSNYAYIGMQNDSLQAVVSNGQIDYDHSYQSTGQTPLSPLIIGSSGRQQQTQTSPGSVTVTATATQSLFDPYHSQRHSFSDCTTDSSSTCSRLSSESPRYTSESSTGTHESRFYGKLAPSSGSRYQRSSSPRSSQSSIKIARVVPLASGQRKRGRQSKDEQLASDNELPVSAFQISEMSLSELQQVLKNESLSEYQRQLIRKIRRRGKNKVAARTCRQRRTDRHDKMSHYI

Row | Structure (SMILES) | IC50
24 | Cc1ccc(SCCNC(=O)CN2C(=O)c3ccccc3S2(=O)=O)cc1 | > 100 µM (inactive)
25 | COc1ccc(OCCN(C)C(=O)c2cccc(S(=O)(=O)N(C)c3ccccc3)c2)cc1 | > 100 µM (inactive)
26 | Fc1ccc(OCc2nc3ccccc3s2)cc1 | > 100 µM (inactive)
27 | Fc1ccc(CSc2nnc(-c3ccco3)o2)cc1 | 30.1 µM (active)
28 | CN(C)S(=O)(=O)NC(c1ccccc1)c1ccccc1 | > 100 µM (inactive)
29 | O=C(CSc1nnc(CNc2ccc(F)cc2)n1Cc1ccco1)NC1CC1 | > 100 µM (inactive)
30 | COC(=O)c1cc(-c2cccc(OC)c2)[nH]n1 | > 100 µM (inactive)
31 | Cn1c(/C(C#N)=C(\O)c2ccc([N+](=O)[O-])s2)nc2ccccc21 | > 100 µM (inactive)

molecular target: T6, Rac GTPase-activating protein 1 (Homo sapiens, UniProt Q9H0H5); assay: MgcRacGAP GTPase-activating activity inhibitors, confirmation, biochemical, ADP Hunter fluorescence, primary and confirmatory (AID 624330); format: functional
T6 sequence (Q9H0H5 whole entry): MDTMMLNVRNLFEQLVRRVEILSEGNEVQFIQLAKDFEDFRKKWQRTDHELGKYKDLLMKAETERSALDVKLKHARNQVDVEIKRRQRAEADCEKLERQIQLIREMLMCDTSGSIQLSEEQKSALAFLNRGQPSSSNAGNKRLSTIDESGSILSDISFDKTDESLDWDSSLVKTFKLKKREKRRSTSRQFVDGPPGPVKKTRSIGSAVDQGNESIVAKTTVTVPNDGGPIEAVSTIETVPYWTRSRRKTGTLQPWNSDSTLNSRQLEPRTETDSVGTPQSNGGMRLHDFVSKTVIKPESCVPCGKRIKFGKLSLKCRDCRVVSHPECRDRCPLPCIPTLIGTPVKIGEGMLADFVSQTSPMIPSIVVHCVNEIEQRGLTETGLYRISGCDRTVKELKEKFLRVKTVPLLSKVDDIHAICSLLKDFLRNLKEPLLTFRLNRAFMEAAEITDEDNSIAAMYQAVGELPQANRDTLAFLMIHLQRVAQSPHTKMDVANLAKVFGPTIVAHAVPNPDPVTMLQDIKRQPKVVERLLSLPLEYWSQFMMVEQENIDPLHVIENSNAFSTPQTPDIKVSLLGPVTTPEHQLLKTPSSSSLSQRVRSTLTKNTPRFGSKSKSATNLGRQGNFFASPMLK

Row | Structure (SMILES) | IC50
32 | CCOC(=O)CCNC(C)C1COc2ccccc2O1 (configuration not stated) | 178 µM (active)
33 | COc1cccc2cc(C(=O)Oc3ccc(NC(C)=O)cc3)c(=O)oc12 | 34.9 µM (active)
34 | Oc1ccccc1/C=N/n1c(S)nnc1-c1ccccc1 | 82.2 µM (active)

tested on: not listed separately; assay: inhibitors of HIV Env-driven cell fusion, dose response, cherry-pick (AID 652057); format: functional, cell-based

Row | Structure (SMILES) | AC50
35 | O=C(Nc1ccc(Cl)cc1)C1CCCN(C2=NS(=O)(=O)c3ccccc32)C1 (configuration not stated) | 25.9 µM (active)
36 | O=C(NCCCN1CCc2ccccc2C1)Nc1ccc(Cl)cc1 | 3.52 µM (active)
37 | C[C@H](CO)N1C[C@H](C)[C@H](CN(C)C(=O)Nc2ccc(F)cc2)OCc2ccccc2-c2c(n(C)c3ccccc23)C1=O | < 0.26 µM (active)
38 | Cc1ccc(-c2ccc3c(c2)O[C@@H](CN(C)Cc2cccnc2)[C@H](C)CN([C@H](C)CO)S3(=O)=O)cc1 | 33.3 µM (active)

tested on: not listed separately; assay: ZM109 Env clade C HIV-1 fusion inhibitors, dose response, HeLa effector, CEM target cells, luciferase, cherry-pick (AID 652058); format: functional, cell-based

Row | Structure (SMILES) | AC50
39 | C[C@H](CO)N1C[C@H](C)[C@H](CN(C)C(=O)Nc2ccc(F)cc2)OCc2ccccc2-c2c(n(C)c3ccccc23)C1=O | < 0.26 µM (active)

tested on: not listed separately; assay: inhibitors of clade B AD8 Env fusion, dose response, cell-based, cherry-pick (AID 652062); format: functional;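 note: luciferase signal from cell-cell fusion driven by HIV-1 clade B AD8 Env; potency is for inhibitors of fusion seen as a drop in luminescence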

Row | Structure (SMILES) | AC50
40 | O=C(NCCCN1CCc2ccccc2C1)Nc1ccc(Cl)cc1 | 39.9 µM (active)
41 | C[C@H](CO)N1C[C@H](C)[C@H](CN(C)C(=O)Nc2ccc(F)cc2)OCc2ccccc2-c2c(n(C)c3ccccc23)C1=O | < 0.26 µM (active)

tested on: not listed separately; assay: P. falciparum Dd2 growth inhibitors, dose response, SYBR Green, cherry-picked samples (AID 1159567); format: functional, cell-based

Row | Structure (SMILES) | AC50
42 | CC(C)(C)[S@@+]([O-])N1Cc2cc(C(=O)N3CCc4ccccc4C3)nc(-c3cccc(-c4ccncc4)c3)c2[C@H]1CCO | 5.87 µM (active)
43 | COc1ccc2c3c(n(C)c2c1)[C@H](CO)N(Cc1ccccc1OC)CC31CN(CC2CCOCC2)C1 | 4.81 µM (active)
44 | COc1ccc2c3c(n(C)c2c1)[C@@H](CO)N(C(=O)Nc1ccccc1F)CC31CCN(C)CC1 | 5.95 µM (active)
45 | COc1ccc2c3c([nH]c2c1)[C@@H](CO)N(Cc1cc(F)ccc1F)CC31CN(C(=O)C2CCC2)C1 | 6.17 µM (active)
46 | CC(C)c1cn([C@H]2C[C@@H]3O[C@H](CO)CC[C@@H]3O[C@@H]2CCc2ccc(C#CC3(O)CCCC3)cc2)nn1 | 6.12 µM (active)

molecular target: Cytochrome P450 2C9 (Homo sapiens, UniProt P11712); assay: not given
Sequence (P11712 whole entry): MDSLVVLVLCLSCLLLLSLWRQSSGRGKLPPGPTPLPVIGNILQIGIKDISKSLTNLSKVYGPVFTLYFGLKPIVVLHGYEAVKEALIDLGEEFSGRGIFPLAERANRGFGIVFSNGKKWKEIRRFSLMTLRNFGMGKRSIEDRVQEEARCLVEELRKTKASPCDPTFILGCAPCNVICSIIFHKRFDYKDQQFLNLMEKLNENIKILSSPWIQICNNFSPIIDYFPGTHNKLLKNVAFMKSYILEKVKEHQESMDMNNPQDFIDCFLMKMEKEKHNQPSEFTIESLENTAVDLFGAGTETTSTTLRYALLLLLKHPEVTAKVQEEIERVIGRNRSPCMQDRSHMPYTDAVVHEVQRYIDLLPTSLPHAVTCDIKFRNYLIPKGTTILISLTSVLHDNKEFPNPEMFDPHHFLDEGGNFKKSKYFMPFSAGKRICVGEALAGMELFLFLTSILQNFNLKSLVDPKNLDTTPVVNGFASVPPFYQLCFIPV

Row | Structure (SMILES) | AC50
47 | O=C(NCCCN1CCc2ccccc2C1)Nc1ccc(Cl)cc1 | 14.1 µM (inconclusive)
